By IC50 is commonly meant the concentration that inhibits the measured activity by half.

Where two headings read alike, the source gives them in different places.

One experiment has as its system d-U937 cells. Put plainly: LPS-induced TNFα/IL-8 release in d-U937 cells. The settings on record: Homo sapiens. Type of experiment: cell-based. How it is done:
Cells are pre-incubated with final concentrations of test compound for 2 hr and are then stimulated with 0.1 μg/mL of LPS (from E. coli: O111:B4, Sigma) for 4 hr. The supernatant is collected for determination of TNFα and IL-8 concentrations by sandwich ELISA (Duo-set, R&D systems). […] The relative 50% effective concentration (REC50) is determined from the resultant concentration-response curve. The inhibition of IL-8 production is calculated at each concentration of test compound by comparison with vehicle control.

Experiment [1] relates to PBMCs. Put plainly: LPS-induced TNFα/IL-8 release in PBMC cells. The settings on record: Homo sapiens, read-out: IC50 Values for Inhibition of Cytokine Release PBMCs IL-8. Type of experiment: cell-based. In short, it runs like this:
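TNFα and IL-8 in supernatants were measured by sandwich ELISA after 24 h of 1 ng/mL LPS (E. coli O111:B4) at 37 °C, 5% CO2. Test compounds were added 2 h before LPS to PBMCs from healthy subjects, separated on a density gradient.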

For the next experiment, the target named is c-Src (Homo sapiens (Human), UniProt P12931). Put plainly: c-Src enzyme inhibition (Z-LYTE FRET). It is filed as biochemical. As for the experimental part: (§1) The enzyme inhibitory activities of compounds disclosed herein are determined by FRET using synthetic peptides labelled with both donor and acceptor fluorophores (Z-LYTE, Invitrogen Ltd., Paisley, UK).
(§2) The relevant enzyme (3000 ng/mL or 2000 ng/mL respectively, 2.5 μL) is incubated with the test compound (either 4 μg/mL, 0.4 μg/mL, 0.04 μg/mL, or 0.004 μg/mL, 2.5 μL each) for 2 hr at RT. The FRET peptides (8 μM, 2.5 μL), and appropriate ATP solutions (2.5 μL, 800 μM for c-Src, and 60 μM ATP for Syk) are then added to the enzymes/compound mixtures and incubated for 1 hr. Development reagent (protease, 5 μL) is added for 1 hr prior to detection in a fluorescence microplate reader (Varioskan® Flash, ThermoFisher Scientific).
(§3) In all cases, the site-specific protease cleaves non-phosphorylated peptide only and eliminates the FRET signal. Phosphorylation levels of each reaction are calculated using the ratio of coumarin emission (donor) over fluorescein emission (acceptor), for which high ratios indicate high phosphorylation and low ratios indicate low phosphorylation levels.

A further experiment has as its target p38 MAPKα (Homo sapiens (Human), UniProt Q16539). Put plainly: p38 MAPKα enzyme inhibition (Z-LYTE FRET, Method 2). Type of experiment: biochemical.
The test system of a further experiment is HT29 cells. Put plainly: IL-1β-induced IL-8 release in HT29 cells. The settings on record: Homo sapiens, HT-29, read-out: IC50 Values for Inhibition of Cytokine Release HT29 cells IL-8. Type of experiment: cell-based. As for the experimental part: HT29 cells, a human colon adenocarcinoma cell line, are plated in a 96 well plate (24 hrs) and pre-treated with compounds at the desired concentration for 2 hours before addition of 5 ng/mL of IL-1β (Abcam) for 24 hours. Supernatants are harvested for IL-8 quantification by Sandwich ELISA (Duo-set, R&D System). The IC50 is determined from the dose response curve.

A further experiment has as its target GSK3α (Homo sapiens (Human), UniProt P49840). Put plainly: GSK 3α enzyme inhibition (Z-LYTE FRET, Method 2). It is filed as biochemical. In short, it runs like this: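 Z-LYTE FRET: GSK3α preincubated with compound 2 h at RT, then FRET peptide and ATP added (stocks 8 μM and 40 μM) for 1 h, followed by 1 h protease development. Compound stocks 4–0.004 μg/mL; phosphorylation from coumarin/fluorescein emission ratio.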

For experiment [2], the system named is PBMCs. Put plainly: IL-2 and IFN gamma release in CD3/CD28 stimulated PBMC cells. It is filed as cell-based. The settings on record: Homo sapiens. In short, it runs like this: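 They were cultured with compound for 3 days. IL-2 and IFN-γ in supernatants were quantified by sandwich ELISA, and IC50 was derived from the dose-response curve.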
The target in another experiment is Syk (Homo sapiens (Human), UniProt P43405). Put plainly: Syk enzyme inhibition (Z-LYTE FRET). It is filed as biochemical. How it is done: as §1, §2, §3
The test system of the next experiment is TNBS-induced colitis. The settings on record: for LP inflammation / Ulcer grade: oral gavage BID, conducted over 2 days, mice; for inflammatory cell infiltrate in the reticular and laminar propria zone / ulcer grade and epithelial repair compared to the vehicle control: dosed orally at either 1 or 5 mg/kg.
Where [3] appears, read: dU937, read-out: IC50 Values for Inhibition of Cytokine Release dU937 cells IL-8.
Setting [4] is: dU937, read-out: IC50 Values for Inhibition of Cytokine Release dU937 cells TNFα.
[5] abbreviates: read-out: IC50 Values for Inhibition of Cytokine Release PBMCs IFNγ.
Setting [6] is: read-out: IC50 Values for Inhibition of Cytokine Release PBMCs IL-2.

p38 MAPKα, sequence (Q16539 whole entry): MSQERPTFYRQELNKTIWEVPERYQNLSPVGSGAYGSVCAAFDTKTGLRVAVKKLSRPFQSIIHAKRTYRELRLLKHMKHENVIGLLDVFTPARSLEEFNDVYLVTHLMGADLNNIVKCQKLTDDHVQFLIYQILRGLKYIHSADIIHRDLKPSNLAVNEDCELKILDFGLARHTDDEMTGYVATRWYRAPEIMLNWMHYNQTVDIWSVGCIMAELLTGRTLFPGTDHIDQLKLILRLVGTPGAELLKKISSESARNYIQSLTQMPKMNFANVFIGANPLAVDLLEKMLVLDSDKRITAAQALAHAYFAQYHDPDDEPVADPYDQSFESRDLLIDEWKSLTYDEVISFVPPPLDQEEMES
c-Src, sequence (P12931 whole entry, looked up): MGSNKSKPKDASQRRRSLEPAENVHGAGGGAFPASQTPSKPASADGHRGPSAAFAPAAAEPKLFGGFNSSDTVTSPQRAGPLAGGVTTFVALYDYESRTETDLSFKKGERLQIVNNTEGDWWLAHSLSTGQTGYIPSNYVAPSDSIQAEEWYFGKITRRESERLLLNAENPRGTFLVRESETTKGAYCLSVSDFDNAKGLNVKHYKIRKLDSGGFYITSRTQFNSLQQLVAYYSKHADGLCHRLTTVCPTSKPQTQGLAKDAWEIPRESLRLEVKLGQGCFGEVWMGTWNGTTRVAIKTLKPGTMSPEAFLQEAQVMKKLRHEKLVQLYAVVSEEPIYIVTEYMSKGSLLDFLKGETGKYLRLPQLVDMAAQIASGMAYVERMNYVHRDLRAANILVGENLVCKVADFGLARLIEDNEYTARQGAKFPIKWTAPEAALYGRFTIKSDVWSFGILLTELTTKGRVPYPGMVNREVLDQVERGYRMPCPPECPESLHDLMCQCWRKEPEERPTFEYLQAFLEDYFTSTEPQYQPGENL
GSK3α, sequence (P49840 whole entry): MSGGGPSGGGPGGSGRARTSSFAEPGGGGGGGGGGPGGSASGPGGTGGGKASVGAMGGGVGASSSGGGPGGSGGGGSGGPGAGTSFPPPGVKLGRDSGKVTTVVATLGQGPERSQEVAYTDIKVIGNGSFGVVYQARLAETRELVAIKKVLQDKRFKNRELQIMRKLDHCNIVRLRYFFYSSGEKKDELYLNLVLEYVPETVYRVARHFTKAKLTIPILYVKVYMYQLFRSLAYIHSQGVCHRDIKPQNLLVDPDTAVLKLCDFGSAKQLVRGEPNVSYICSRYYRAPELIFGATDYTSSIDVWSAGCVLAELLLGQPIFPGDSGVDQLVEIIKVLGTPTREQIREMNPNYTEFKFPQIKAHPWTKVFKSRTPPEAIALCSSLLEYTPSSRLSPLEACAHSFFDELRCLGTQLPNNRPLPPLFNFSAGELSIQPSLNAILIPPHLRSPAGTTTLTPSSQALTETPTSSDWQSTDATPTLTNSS
Protocol for TNBS-induced colitis: On Day 0 of the study TNBS (200 μL) is administered intra-colonically via a plastic catheter followed by BID dosing of the vehicle, reference or test compound for 2 or 4 days. During the study animals are weighed every day and stool observations are made and recorded as a score, based on stool consistency. At the time of sacrifice on Day 2 (or Day 4) the large intestine is removed and the length and weight recorded. Sections of the colon are taken for either MPO analysis to determine neutrophil infiltration or for histopathology involving scoring to determine disease severity.

`COCCOCCOCCOc1cc(Nc2nccc(Oc3ccc(NC(=O)Nc4cc(C(C)(C)C)nn4-c4ccc(N(C)C)cc4)c4ccccc34)n2)cc(OC)c1` [Example 63, 1-(3-(tert-Butyl)-1-(4-(dimethylamino)phenyl)-1H-pyrazol-5-yl)-3-(4-((2-((3-methoxy-5-(2-(2-(2-methoxyethoxy)ethoxy)ethoxy)phenyl)amino)pyrimidin-4-yl)oxy)naphthalen-1-yl)urea]: the IC50 was 0.6 nM with d-U937 cells (setting [3]); 0.4 nM in the experiment with d-U937 cells (setting [4]); 2 nM in the experiment with PBMCs [1]; 13 nM against c-Src; 187 nM at p38 MAPKα; 2 nM in the experiment on HT29 cells. The values for the IC50 at GSK3α, in the experiment on PBMCs [2] (setting [5]) and in the experiment on PBMCs [2] (setting [6]) were 4820 nM, 1.5 nM and 76.2 nM, respectively.

`COc1ccc(-n2nc(C(C)(C)C)cc2NC(=O)Nc2ccc(Oc3ccnc(Nc4cccc(OS(C)(=O)=O)c4)n3)c3ccccc23)cn1` [Example 3, 3-(4-((4-(3-(3-(tert-Butyl)-1-(6-methoxypyridin-3-yl)-1H-pyrazol-5-yl)ureido)naphthalen-1-yl)oxy)pyrimidin-2-yl)amino)phenyl methanesulfonate]: the IC50 with d-U937 cells (setting [4]) worked out at 0.3 nM; in the experiment with PBMCs [1], 1.5 nM; on p38 MAPKα, 28 nM; against Syk it was 66 nM; in the experiment with HT29 cells, 2.2 nM; at GSK3α it was 2540 nM. Also, the IC50 in the experiment on PBMCs [2] (setting [5]) came out at 1.2 nM; in the experiment with PBMCs [2] (setting [6]) it was 9.9 nM.

Consider `COCCOCCOCCOc1cc(Nc2nccc(Oc3ccc(NC(=O)Nc4cc(C(C)(C)C)nn4-c4ccc(C)cc4)c(Cl)c3Cl)n2)cc(OC)c1` [Example 53, 1-(3-(tert-Butyl)-1-(p-tolyl)-1H-pyrazol-5-yl)-3-(2,3-dichloro-4-((2-((3-methoxy-5-(2-(2-(2-methoxyethoxyl)ethoxy)ethoxy)phenyl)amino)pyrimidin-4-yl)oxy)phenyl)urea], for which the half-maximal inhibitory concentration (IC50) was 3.8 nM with PBMCs [1]; 23 nM at c-Src; 816 nM on p38 MAPKα; 56 nM on Syk; 2.4 nM with HT29 cells; over 10000 nM against GSK3α. Besides, the figures for the IC50 in the experiment with PBMCs [2] (setting [5]) and with PBMCs [2] (setting [6]) were 2.1 nM and 133 nM, respectively.

For the compound `COc1cc(Nc2nccc(Oc3ccc(NC(=O)Nc4cc(C(C)C)nn4-c4ccc(C)cc4)c4ccccc34)n2)cc(OS(C)(=O)=O)c1` [Example 12, 3-((4-((4-(3-(3-Isopropyl-1-(p-tolyl)-1H-pyrazol-5-yl)ureido)naphthalen-1-yl)oxy)pyrimidin-2-yl)amino)-5-methoxyphenyl methanesulfonate], the half-inhibitory concentration (IC50) in the experiment with d-U937 cells (setting [4]) was 0.4 nM; in the experiment on PBMCs [1], 2.8 nM; against c-Src, 39 nM; against p38 MAPKα, 422 nM; against Syk, 238 nM; in the experiment on HT29 cells, 4.3 nM. Moreover, the IC50 with PBMCs [2] (setting [5]) turned out to be 4.7 nM; with PBMCs [2] (setting [6]), 24.8 nM.

For the compound `COc1cc(Nc2nccc(Oc3ccc(NC(=O)Nc4cc(C(C)(C)C)nn4-c4ccc(C)cc4)c4ccccc34)n2)cc(OCCCN2CCOCC2)c1` [Example 49, 1-(3-(tert-Butyl)-1-(p-tolyl)-1H-pyrazol-5-yl)-3-(4-((2-((3-methoxy-5-(3-morpholino-propoxy)phenyl)amino)pyrimidin-4-yl)oxy)naphthalen-1-yl)urea], the IC50 with PBMCs [1] was determined as 1.9 nM; against c-Src, 23 nM; against p38 MAPKα, 175 nM; against Syk, 20 nM; with HT29 cells, 2.3 nM; against GSK3α, 7260 nM. Moreover, the figures for the IC50 with PBMCs [2] (setting [5]) and in the experiment on PBMCs [2] (setting [6]) were 1.2 nM and 54.7 nM, respectively.

Regarding `COCCOCCOCCOc1cccc(Nc2nccc(Oc3ccc(NC(=O)Nc4cc(C(C)C)nn4-c4ccc(C)cc4)c4ccccc34)n2)c1` [Example 9, 1-(3-Isopropyl-1-(P-tolyl)-1H-pyrazol-5-yl)-3-(4-((2-((3-(2-(2-(2-methoxyethoxy)ethoxy)-ethoxy)phenyl)amino)pyrimidin-4-yl)oxy)naphthalen-1-yl)urea], the half-inhibitory concentration (IC50) in the experiment on d-U937 cells (setting [3]) is 2.8 nM; in the experiment on d-U937 cells (setting [4]) it was 1.5 nM; in the experiment on PBMCs [1] it was 3.1 nM; against c-Src, 154 nM; on p38 MAPKα, 26 nM; against Syk, over 1000 nM. Further, the IC50 in the experiment on HT29 cells amounted to 4.5 nM; at GSK3α it was 3720 nM.

`COCCOCCOCCOc1cc(Nc2nccc(Oc3ccc(NC(=O)Nc4cc(C(C)(C)C)nn4-c4ccc(C)cc4)c4ccccc34)n2)cc(OC)c1` [Example 37, 1-(3-(tert-Butyl)-1-(p-tolyl)-1H-pyrazol-5-yl)-3-(4-((2-((3-methoxy-5-(2-(2-(2-methoxy-ethoxy)ethoxy)ethoxy)phenyl)amino)pyrimidin-4-yl)oxy)naphthalen-1-yl)urea]: the half-inhibitory concentration (IC50) in the experiment on d-U937 cells (setting [3]) was 1.7 nM; with PBMCs [1], 1.8 nM; on c-Src it was 11 nM; against p38 MAPKα, 153 nM; against Syk it was 36 nM; with HT29 cells, 1.7 nM. In addition, the IC50 on GSK3α came out at 6360 nM; in the experiment with PBMCs [2] (setting [5]), 1.5 nM; in the experiment on PBMCs [2] (setting [6]) it was 34.8 nM.

For `COCCOCCOCCOc1cc(Nc2nccc(Oc3ccc(NC(=O)Nc4cc(C(C)(C)C)nn4-c4ccc(C)cc4)c4ccccc34)n2)cc(OC)n1` [Example 69, 1-(3-(tert-Butyl)-1-(p-tolyl)-1H-pyrazol-5-yl)-3-(4-((2-((2-methoxy-6-(2-(2-(2-methoxyethoxy)ethoxy)ethoxy)pyridin-4-yl)amino)pyrimidin-4-yl)oxy)naphthalen-1-yl)urea], the concentration for half-maximal inhibition (IC50) was 0.9 nM in the experiment with d-U937 cells (setting [3]); 1.2 nM with d-U937 cells (setting [4]); 1.6 nM in the experiment with PBMCs [1]; 14 nM against c-Src; 172 nM against p38 MAPKα; 27 nM at Syk. The IC50 in the experiment with HT29 cells is 3.1 nM; against GSK3α, over 10000 nM; with PBMCs [2] (setting [5]) it was 1.4 nM; in the experiment on PBMCs [2] (setting [6]), 50.3 nM.

Turning to `COc1cc(Nc2nccc(Oc3ccc(NC(=O)Nc4cc(C(C)C)nn4-c4ccc(C)cc4)c4ccccc34)n2)cc(S(=O)(=O)C2CC2)c1` [Example 18, 1-(4-((2-((3-(Cyclopropylsulfonyl)-5-methoxyphenyl)amino)pyrimidin-4-yl)oxy)naphthalen-1-yl)-3-(3-isopropyl-1-(p-tolyl)-1H-pyrazol-5-yl)urea], the IC50 was 2.1 nM in the experiment on PBMCs [1]; 27 nM on c-Src; 102 nM at p38 MAPKα; 358 nM at Syk; 6.2 nM with HT29 cells; 2900 nM on GSK3α. In addition, the half-maximal inhibitory concentration (IC50) with PBMCs [2] (setting [6]) was found to be 84.6 nM. Moreover, the values for the LP inflammation in the experiment with TNBS-induced colitis (1 mg/kg) and in the experiment with TNBS-induced colitis (5 mg/kg) were 2.8 ± 0.4 and 2.6 ± 0.3, respectively. Besides, the Ulcer grade in the experiment on TNBS-induced colitis (1 mg/kg) was determined as 3.3 ± 0.4; in the experiment on TNBS-induced colitis (5 mg/kg) it was 3.0 ± 0.5. The “inflammatory cell infiltrate in the reticular and laminar propria zone” value with TNBS-induced colitis was “marked reduction”. For the same compound, the “ulcer grade and epithelial repair compared to the vehicle control” value in the experiment with TNBS-induced colitis is listed as “marked improvements”.

On to `COc1cc(Nc2nccc(Oc3ccc(NC(=O)Nc4cc(C(C)C)nn4-c4ccc(C)cc4)c4ccccc34)n2)cc(SCCO)c1` [Example 22], for which the IC50 in the experiment on PBMCs [1] stood at 2.3 nM; against c-Src, 47 nM; at p38 MAPKα it was 114 nM; against Syk, 134 nM; in the experiment with HT29 cells, 5.1 nM; in the experiment with PBMCs [2] (setting [6]), 30.7 nM. The LP inflammation in the experiment on TNBS-induced colitis (1 mg/kg) was determined as 2.6 ± 0.3; with TNBS-induced colitis (5 mg/kg), 3.8 ± 0.3. Besides, the results for the Ulcer grade in the experiment with TNBS-induced colitis (1 mg/kg) and in the experiment with TNBS-induced colitis (5 mg/kg) were 2.8 ± 0.4 and 3.7 ± 0.4, respectively. In addition, in the experiment with TNBS-induced colitis, the “inflammatory cell infiltrate in the reticular and laminar propria zone” value was “marked reduction”. In addition, in the experiment with TNBS-induced colitis, the “ulcer grade and epithelial repair compared to the vehicle control” value is “marked improvements”.

Source of the values: patent publication US9732063B2, “Kinase inhibitors” (RESPIVERT LIMITED, priority 2012, dated 2017).
